Results as given in patent US20190083457A1, “MITOCHONDRIAL ALDEHYDE DEHYDROGENASE-2 MODULATORS FOR PROTECTING, EXPANDING AND INCREASING THE POTENCY OF HEMATOPOIETIC STEM CELLS” (The Borad of Trustees of the Leland Stanford Junior …, priority 2017, published 2019).
“Also recorded” adds a separate entry of the source.

Columns and labels:
[1] = Tolerability of chronic Alda-1 administration in vivo; settings: 10 mg/kg.day continuous subcutaneous infusion, 3 months
Description: (§1) Mice (wild-type C57BL/6N were administered with Alda-1 (10 mg/kg.day) or vehicle control (50% DMSO/50% PEG-400) by continuous infusion via subcutaneous osmatic pumps for 3 months.
(§2) Vehicle control and Alda-1 treated mice were then analyzed for HSC functionality. […] With reference to FIG. 1A and FIG. 1B, error bars show standard deviation, significance computed with Student's t-test. *=p≤0.05.

HSC = HSC expansion in mice given Alda-1 by continuous subcutaneous infusion; format: in vivo, mice (wild-type C57BL/6N)
Description: as §1, §2

HSCs = experiment: Competitive repopulation with HSCs from Alda-1 treated and untreated donors; format: in vivo, mice; settings: FIG. 2
Description: To measure the effects of ALDH2 activation on HSC potency, recipient mice were transplanted with purified HSCs from two donors, one of which had received Alda-1 prior to collection of HSCs for transplant, and another of the same strain which had not received Alda-1 prior to collection for transplant. The two donors were genetically the same except for a difference in the CD45 gene, which allows the blood cells from each to be distinguished from each other and the recipient.
The Alda-1 treated donor had received Alda-1 subcutaneously for 2 months prior to HSC collection. The cells from the treated and untreated donors were mixed together prior to transplant at fixed ratios of 1:3 (25%), 1:1 (50%), or 3:1 (75%). A total of 3000 HSCs were given intravenously to immunodeficient (γc^-/- Kit^W41/W41) mice after low dose irradiation. The polymorphonuclear neutrophils (PMN, aka granulocytes) in each recipient mouse were tested at 6 weeks after transplant to determine what proportion of the PMN were derived from each HSC donor.
With reference to FIG. 2, the X-axis represents percentage of total cells infused which were from Alda-1 treated donor and the Y-axis represents the actual percentage of PMN observed after HSCT to be derived from Alda-1 treated donor. The linear line represents the predicted ratio if there were no difference in the repopulating ability of the HSC cells.

## O=C(NCc1ccc2c(c1)OCO2)c1c(Cl)cccc1Cl [Alda-1]
[1]
  tolerability of chronic administration: well tolerated
HSC; Alda-1 10 mg/kg.day, subcutaneous osmotic pumps, 3 months, vs vehicle control
  HSC expansion (in words): significant HSC expansion
HSC; Alda-1 10 mg/kg.day, subcutaneous osmotic pumps, 3 months, vs vehicle control, FIG. 1A
  increase in (LT)-HSCs: 4 fold
HSC; Alda-1 10 mg/kg.day, subcutaneous osmotic pumps, 3 months, vs vehicle control, FIG. 1B
  increase in (ST)-HSCs: 2 fold
HSC; FIG. 1A legend
  long-term mouse HSC (in words): increases long-term mouse HSC
HSC; FIG. 1B legend
  short-term HSC (in words): increases short-term HSC
HSCs; 6 weeks after transplant, treated:untreated donor cells 1:3, 1:1 or 3:1
  origin of PMN in recipient vs ratio of transplanted cells: more likely to be derived from the Alda-1 treated donor than predicted
HSCs; donor given Alda-1 subcutaneously for 2 months, 3000 HSCs i.v. to irradiated immunodeficient mice
  potency / repopulating ability of HSC in recipient: increased repopulating ability; also recorded: increased the potency of HSC in repopulating recipient
